Assay: Human HepG2 cell viability assay in 384 well format
Type: toxicity, cell-based
Set-up: dose 125 nL, time 70.5 hour; concentration not given beside the values
Settings: HepG2 cells, read-out: Inhibition

SMILES | cytotoxicity at 70.5 h [%]
O=S(=O)(CCN1CCN(c2ccccc2O)CC1)c1ccc(Cl)cc1 | -14.3
CN1CCC(NC(=O)C2CN(c3cncnc3)CCO2)CC1 (stereo unspecified) | -7.93
Cc1noc(C2(C)CCCN(C(=O)c3cnn(C)c3)C2)n1 (stereo unspecified) | -7.96
COCc1nc(C2CCN(Cc3nccn3C)CC2)no1 | -4.44
CCN(Cc1ccncc1)CC1(O)CCN(C(=O)c2cnn(C)c2)C1 (stereo unspecified) | -4.91
Cc1nc(Nc2nncs2)cc(C2CCCN2C)n1 (stereo unspecified) | 3.74
CCc1nnc(Nc2cccc(C3CCN(CC4CC4)CC3)n2)s1 | -7.67
CN(C)C(=O)CN1CCCCC1c1nc(N)ncc1-c1ccc(Cl)cc1 (stereo unspecified) | -15.8
Cc1cc(N)nc(C2(C)CCCN2C(=O)c2cnccn2)n1 (stereo unspecified) | 4.65
Cc1nc(Nc2nnc(C)s2)cc(C2CCCN2c2ccncn2)n1 (stereo unspecified) | -8.94
NC(=O)CN1CCC(c2cncc(-c3cccc(Cl)c3)n2)CC1 | 15.3
Cc1nc(Nc2ncccn2)cc(C2CCN(CC(C)C)C2)n1 (stereo unspecified) | -15.1
CCC(=O)N1CCC(Cc2ccccc2-c2ccccc2F)(C(N)=O)C1 (stereo unspecified) | -8.54
CCC(=O)N1CCC(Cc2ccccc2-c2cccc(C)c2)(C(N)=O)C1 (stereo unspecified) | 12.2
CCN(CC(O)c1ccc(C)cc1)C(=O)NC(C)C (stereo unspecified) | -1.93
CCN1CCN(c2cncc(Cl)n2)CC1 | 26.6
CC(C)(C)c1ncc(CNCC2CN(C3CC3)CCO2)s1 (stereo unspecified) | -2.48
COCCNC(=O)CN(C)C(C)c1nc(C)no1 (stereo unspecified) | 3.14
CCc1nc(CSCc2csc(CS(C)(=O)=O)n2)cs1 | -1.17
CCN(C)C(=O)c1cccc(C(=O)N(C)Cc2cccc(O)c2)c1 | 25.8
CC(C)CN(CC(O)c1ccccc1)C(=O)NC(C)C (stereo unspecified) | -4.36
CC(C)c1ccc(CNC(c2ccc(F)cn2)C(C)C)cc1 (stereo unspecified) | 0.89
CCN1CCOC(CNCc2ccc(C)s2)C1 (stereo unspecified) | -4.21
CC1CCN(C(=O)CSCCN2CCOCC2)CC1 | 4.07
COc1ccccc1CC(C)CC(=O)NS(=O)(=O)C(C)C (stereo unspecified) | 9.2

SMILES | cytotoxicity at 70.5 h [%]
Cc1cc(C)cc(NCCC(=O)NC2CCCCC2)c1 | 1.57
O=C(C(c1ccccc1)S(=O)(=O)c1ccccn1)N1CCCC1 (stereo unspecified) | -2.5
Cc1cccc(-c2ccc(C(=O)N3CCSCC3)c(=O)[nH]2)c1 | 0.198
O=C(CCNc1ccccc1)NC1CCN(C(=O)C2CCCCC2)CC1 | -5.78
Cc1cnn(CC2CN(CC(=O)Nc3c(C)nn(C)c3C)CCO2)c1 (stereo unspecified) | -4.95
CC(C)OCCC(=O)NS(=O)(=O)N1CCOc2ccccc21 | -0.303
Cc1cc(NC(=O)CNC2CCc3ncnn3C2)on1 (stereo unspecified) | 9.31
CCCS(=O)(=O)NCC(O)c1c(Cl)cccc1Cl (stereo unspecified) | -0.597
O=C(NC1CCN(CC2CC2)C1)N1CCC(OC2CCCCC2)CC1 (stereo unspecified) | 14.5
O=C(NC1CCN(CC2CCCC2)C1)N1CCC(OCC2CC2)CC1 (stereo unspecified) | 6.83
Cn1cc(CNC2CCCOc3c2ccc2ccccc32)cn1 (stereo unspecified) | 2.1
O=S(=O)(Cc1ccccc1Cl)CC(O)CO (stereo unspecified) | 4.74
O=S(=O)(CCO)CCc1ccccc1Cl | -9.35
Cc1ncccc1NS(=O)(=O)Cc1cccc(F)c1 | -2.53
Cc1nc2cc(NCc3cnn(C)c3)ccc2n1C | -2.05
Cc1ccc(Br)cc1NC(=O)NC1CCC2(C1)OCCO2 (stereo unspecified) | 18.1
COc1cc(Cl)c(CN2CCC(C(N)=O)C2)cc1Cl (stereo unspecified) | 4.93
CC1CCN(S(=O)(=O)N2CCCN(CC3CCCO3)CC2)CC1 (stereo unspecified) | 13.3
CN1CCCC(CNC(=O)N(C)Cc2ccc(Cl)c(F)c2)C1 (stereo unspecified) | 7.7
CCOC(C)c1nccn1Cc1cc(C)on1 (stereo unspecified) | -1.6
CC(NCCn1cccn1)c1ccccc1Cl (stereo unspecified) | 10.3
O=C(CSCc1ccccn1)NCC1CC1 | 0.905
CCC(O)(CNCc1cc[nH]n1)c1ccc(Br)cc1 (stereo unspecified) | 6.78
Cc1c(NCc2ccccc2C#N)cccc1-n1cnnn1 | -3.47
CC(C(=O)NC1CC1)S(=O)(=O)Cc1noc(C(C)(C)C)n1 (stereo unspecified) | -1.87

SMILES | cytotoxicity at 70.5 h [%]
CC(C)N(C)S(=O)(=O)NCc1cccnc1N(C)C | -4.22
CC(C(=O)NC1CC1)S(=O)(=O)Cc1nc(Cc2ccccc2)no1 (stereo unspecified) | -0.763
CC(C(=O)NC1CCCC1)S(=O)(=O)Cc1noc(C(C)(C)C)n1 (stereo unspecified) | 7.9
c1ccc2c(c1)OCCC2NCc1ccc(N2CCOCC2)cc1 (stereo unspecified) | -2.79
O=C(c1cccnc1O)N1CCOC(c2ccc(Cl)cc2)C1 (stereo unspecified) | -0.483
Cc1cc(N(Cc2cccnc2)C2CC2)n2nc(C(F)(F)F)nc2n1 | 9.82
CN1CCC(CNC(=O)NCc2ccc(N(C)C)cc2)CC1 | -2.97
O=C1CSc2ccc(C(=O)N3CCCC(n4cccn4)C3)cc2N1 (stereo unspecified) | -0.55
Fc1ccc2c(c1)CCC2NCc1ccc(N2CCOCC2)cc1 (stereo unspecified) | 7.55
O=C1COc2cc(C(=O)N3CCCC(n4ccnc4)C3)ccc2N1 (stereo unspecified) | -1.66
COc1ccc(-c2noc(C3=NN(C)C(=O)CC3)n2)cc1OC | -3.46
CCCC(C)CS(=O)(=O)NCc1cccnc1OC (stereo unspecified) | 1.49
CC(C)Cc1nc(CN2CCC(N3CCN(C)C3=O)CC2)no1 | -1.18
Cc1ccc(OCc2cccc(C(=O)N(C)C(C)CC#N)c2)cn1 (stereo unspecified) | 0.55
CN1N=C(c2nc(Cc3cccc(Br)c3)no2)CCC1=O | -2.2
Cc1[nH]ncc1CCCNC(=O)N1CCN2CCCCC2C1 (stereo unspecified) | 8.45
CCc1oc(C(=O)N2CCCC(c3nnn[nH]3)C2)cc1C (stereo unspecified) | -4.85
COc1ccc(Cc2noc(C3=NN(C)C(=O)CC3)n2)cc1OC | -2.26
COCCN(Cc1noc(-c2ccc(OC)cc2)n1)C1CC1 | -0.841
CCN(CC(C)C#N)C(=O)c1cccc(COc2ccc(C)nc2)c1 (stereo unspecified) | -4.47
N#CCCN(CC1CCOC1)Cn1ccc(-c2ccsc2)n1 (stereo unspecified) | 0.369
CC(C(=O)N1CCCC1)S(=O)(=O)Cc1noc(C(C)(C)C)n1 (stereo unspecified) | -2.28
CC(O)CN1CCC(CN(C)Cc2cc(F)cc3cccnc23)CC1 (stereo unspecified) | -2.25
O=C(c1cnc(-c2ccccc2)s1)N1CCC2(CC1)OCCO2 | 7.39
Cc1cc(C)n(CC(C)CNC(=O)NCc2ccco2)n1 (stereo unspecified) | -10.4

SMILES | cytotoxicity at 70.5 h [%]
CCN(CC)S(=O)(=O)c1cc(NC(=O)CCc2cscn2)ccc1C | -6.12
CC(C)CC(NC(=O)CN(C)C(=O)c1ccco1)c1cccs1 (stereo unspecified) | -9.94
CC(C)CC(NC(=O)CN(C)c1cnccn1)c1cccs1 (stereo unspecified) | -6.01
CCC(=O)NC(CC(C)C)c1cccs1 (stereo unspecified) | -14
Oc1cccc(CNCCC2CCCO2)c1 (stereo unspecified) | -12.5
CC(C)N(C)C(=O)C1CSCN1S(=O)(=O)c1ccccc1F (stereo unspecified) | -9.21
Cn1ccc(C(=O)Nc2cccc(-c3ccc4c(c3)CCO4)n2)cc1=O | -20.6
O=C1C=CC=N/C1=C(/O)NCCNS(=O)(=O)N1CCCCCC1 | -9.06
O=C(COC1CCCC1)N1CCC(C(O)c2ccc(F)cc2)CC1 (stereo unspecified) | -8.09
Cc1ccc(C(=O)NCCS(=O)(=O)N2CCSCC2)o1 | 3.19
Cc1ccccc1C1(CNCc2cnc(N3CCOCC3)nc2)CC1 | 5.8
Cc1ncccc1C(=O)NCC(C)Oc1ccc(F)cc1 (stereo unspecified) | 24.4
CCc1ccc(C(COC)NC(=O)c2ccsc2)o1 (stereo unspecified) | -3.72
Cn1c(C2CC2)nc2c1CCN(Cc1nc3ccccc3s1)C2 | 23.2
O=C1N(CC2CC2)C(c2cncs2)NC12CCCC2 (stereo unspecified) | -4.01
COc1ccccc1N1CCN(CC(=O)NC(C)c2ccco2)CC1 (stereo unspecified) | -5.63
O=C1CCCN1Cc1ccc(C(=O)N2CCCC2c2cccs2)cc1 (stereo unspecified) | -6.75
CC(NC(=O)CN1CCN(c2ccncc2Cl)CC1)c1ccco1 (stereo unspecified) | -7.35
CCc1ccc(C(COC)NC(=O)c2ccc(F)c(NC(C)=O)c2)o1 (stereo unspecified) | 23.6
CCN(Cc1ccco1)C(C)c1nc(C)no1 (stereo unspecified) | -2.63
CCN(Cc1ccco1)C(C)c1nc(C(C)C)no1 (stereo unspecified) | -3.54
COc1ccnc(NC(Cc2ccccc2)C(N)=O)n1 (stereo unspecified) | -3.74
CCOc1ccc(CNC(C)c2c(C)nn(C)c2C)cc1 (stereo unspecified) | 20.4
Cc1nc(CN2CCCN(CCCc3ccccc3)CC2)no1 | -7.12
CC(c1ccc(S(C)(=O)=O)cc1)N(C)C(=O)c1ccccc1I (stereo unspecified) | -4.13

SMILES | cytotoxicity at 70.5 h [%]
CCOc1ccccc1C(=O)N(C)C(C)c1ccc(S(C)(=O)=O)cc1 (stereo unspecified) | -6.38
Cc1ccc(N(CC(=O)N2CCCCC2)C(=O)C2COCCO2)cc1 (stereo unspecified) | -2.98
CC1CCCN(CCCNC(=O)Cc2csc(-c3ccoc3)n2)C1 (stereo unspecified) | -3.83
Cc1nc(CN2CCN(CCCc3nc4ccccc4o3)CC2)no1 | -0.419
Cc1nn(C)c(C)c1C(C)NCc1ccc(OC(C)C)cc1 (stereo unspecified) | -1.94
Cc1nc(CN2CCN(CCCc3ccccc3)CC2)no1 | 1.83
Cc1cccc(N(CC(=O)N2CCCCC2)C(=O)C2CCCO2)c1 (stereo unspecified) | 2.3
CSCc1cc(F)ccc1CNC(=O)N1CCCC1 | -4.58
O=C(c1csc(-c2ccco2)n1)N1CCOc2ncccc21 | 0.101
COc1cccc(-c2cnc(CNC(C)(C)c3nc(C)cs3)o2)c1 | -4.32
Cc1noc(C(C)N(C)Cc2ccco2)n1 (stereo unspecified) | -6.09
CCCc1noc(C(C)N(CC)Cc2ccco2)n1 (stereo unspecified) | 7.58
CCN(Cc1ccco1)C(C)c1nc(C(C)(C)C)no1 (stereo unspecified) | -3.44
Cc1cscc1-c1nc(C2CCOC2)no1 (stereo unspecified) | -5.31
COCCSCC(=O)NCc1ccc(N(C)C)nc1 | -4.15
CSCc1cc(F)ccc1CNC(=O)N1CCC[C@@H]1CO | -4.06
CSCc1cc(F)ccc1CNC(=O)N1CCOCC1 | -10.7
Cc1csc(CCNCc2cnc3c(c2)c(C)nn3C)n1 | 5.91
O=C1CC(NCc2cnc(N3CCCC3)nc2)CN1c1ccccc1 (stereo unspecified) | 1.08
Cc1nc(Nc2cnccn2)cc(C2CN(C(C)C)C2)n1 | -6.87
Clc1ccc(C2(CNC3=NCCN3)CCCCC2)cc1 | 26.8
